Measured values as given in US5326882A, “Chemiluminescent 3-(substituted Adamant-2'-Ylidene) 1,2-dioxetanes” (Tropix, Inc., priority 1992, dated 1994).

Legend:
[1] = target: alkaline phosphatase (Bos taurus, UniProt P19111); assay: Chemiluminescent signal and signal:background with enhancer polymers (Example XVII); type: biochemical
Protocol: Four sets of three tubes each, each tube in each set containing 450 μl of a 0.4 mM aqueous solution of one of the four 1,2-dioxetanes being compared in 0.1M diethanolamine containing 1 mM magnesium chloride, 0.02% sodium azide and 0.1% of the enhancer polymer, pH 10.0 (substrate buffer) were prepared and the background signal from each tube measured using a Berthold LB 952T luminometer (Berthold Instruments; Wildbad, Federal Republic of Germany).
Next, 50 μl of an aqueous solution, 2.83×10^-12 M of alkaline phosphatase in 0.1M diethanolamine containing 1 mM magnesium chloride, 0.02% sodium azide, pH 10.0, (final enzyme concentration 2.83×10^-13 M) was added to each tube and the chemiluminescent signals were measured in the luminometer at 5 and 20 minutes. The intensity of the chemiluminescent signals and the signal: background ratios obtained for each of the four 1,2-dioxetanes in the presence of the enhancer polymers are shown in Table III below.
The enhancer polymers used, and the symbols for such polymers used in Table III, were the following: […]

[2] = target: T1, alkaline phosphatase-labeled DNA probe (Bos taurus, UniProt P19111); assay: Alkaline phosphatase-labeled DNA probe detection in membrane with and without BDMQ blocking step (Example XV); conditions: for Detection limit (in picograms DNA) 5. min. exp.: five minute exposure 40 minutes after dioxetane addition; for Detection limit (in picograms DNA) 1 min. exp.: one minute exposure 77 minutes after dioxetane addition
T1 construct: purchased Tropix, Inc
T1 sequence (P19111 20-506 limits assumed): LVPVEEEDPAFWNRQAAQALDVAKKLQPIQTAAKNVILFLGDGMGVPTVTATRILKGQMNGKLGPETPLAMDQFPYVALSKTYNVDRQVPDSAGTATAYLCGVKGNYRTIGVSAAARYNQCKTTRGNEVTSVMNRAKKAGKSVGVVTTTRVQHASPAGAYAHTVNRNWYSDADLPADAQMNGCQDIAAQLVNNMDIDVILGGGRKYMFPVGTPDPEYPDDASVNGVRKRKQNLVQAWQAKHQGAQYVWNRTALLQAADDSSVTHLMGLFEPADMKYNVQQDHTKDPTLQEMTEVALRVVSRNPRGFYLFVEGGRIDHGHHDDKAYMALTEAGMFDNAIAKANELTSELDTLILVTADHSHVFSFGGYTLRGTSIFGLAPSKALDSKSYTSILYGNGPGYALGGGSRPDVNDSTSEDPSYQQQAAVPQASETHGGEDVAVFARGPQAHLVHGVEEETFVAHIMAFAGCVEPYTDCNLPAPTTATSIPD
T1 sequence (P02701 25-152 partner): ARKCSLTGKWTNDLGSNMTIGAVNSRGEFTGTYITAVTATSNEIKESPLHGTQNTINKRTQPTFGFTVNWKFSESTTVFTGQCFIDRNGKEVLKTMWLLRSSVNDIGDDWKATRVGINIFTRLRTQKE
Protocol: pBr 322 plasmid (4700 bp) was subjected to a nick translation process using a Trans-Light kit (Tropix, Inc., Bedford, Mass.) to generate a mixture of biotinylated single stranded polynucleotides of 200-2000 bps in length.
This mixture was dotted onto a dry BIODYNE A membrane as five parallel columns of dots of the following concentrations:
The membrane was subjected to ultraviolet irradiation (UVP Mineral Light; UVP, San Gabriel, Calif.) for 3 minutes to fix the DNA to the surface of the membrane, then air dried. Next, the membrane was blocked in 0.2% casein/0.1% Tween 20 detergent in PBS for 1 hour, following which 1/5000 diluted avidin-alkaline phosphatase conjugate (Tropix, Inc.) in 0.2% casein in PBS was added. The membrane was then incubated for 30 minutes, washed three times (for 5 minutes each time) in 0.2% casein/0.1% Tween 20 detergent in PBS and washed once for five minutes in aqueous 0.1M diethanolamine containing 1 mm magnesium chloride and 0.02% sodium azide, pH 10.0 (substrate buffer).
Next, the five columns of rows of dots 1-5 were individually cut from the membrane ("strips 1-5"), as were the five columns of rows of dots 6-10 ("strips 6-10"). Strips 1-5 were washed with substrate buffer for 30 minutes. Strips 6-10 were blocked in 0.1% BDMQ in substrate buffer for 30 minutes. Both sets of strips were then incubated for 5 minutes in substrate buffer, then individually incubated for five minutes in aqueous solutions (0.25 mM) of 1,2-dioxetanes as indicated below:
All strips were then placed in camera luminometers and exposed on Polaroid Type 612 instant black and white film.

[3] = BDMQ blocking step, listed as OH-Adamant-2'-ylidene (A isomer)

Sequence of alkaline phosphatase (P19111 20-506 limits assumed): as the sequence (P19111 20-506 limits assumed) above

COC1(c2cccc(OP(=O)(O)O)c2)OOC12C1CC3CC2CC(O)(C3)C1 (single isomer, unassigned) [A-OH-AMPPD, disodium 3-(4-methoxyspiro-[1,2-dioxetane-3,2'-(5'-hydroxy)tricyclo[3.3.1.1^3,7]decan]-4-yl)phenyl phosphate]
S/N ([1]; polymer BAEDM, 5 min): 61.6 | SIGNAL ([1]; polymer BAEDM, 5 min): 5887.3 | S/N ([1]; polymer BAEDM, 20 min): 77.8 | SIGNAL ([1]; polymer BAEDM, 20 min): 7433.5 | S/N ([1]; polymer BAEDM, time 0): 1.0 | SIGNAL ([1]; polymer BAEDM, time 0 (background, before enzyme)): 95.6 | S/N ([1]; polymer BZ, 5 min): 27.0 | SIGNAL ([1]; polymer BZ, 5 min): 2156.9 | S/N ([1]; polymer BZ, 20 min): 31.7 | SIGNAL ([1]; polymer BZ, 20 min): 2536.7 | S/N ([1]; polymer BZ, time 0): 1.0 | SIGNAL ([1]; polymer BZ, time 0 (background, before enzyme)): 79.9 | S/N ([1]; polymer DAA TMQ, 5 min): 61.7 | SIGNAL ([1]; polymer DAA TMQ, 5 min): 5583.1 | S/N ([1]; polymer DAA TMQ, 20 min): 69.7 | SIGNAL ([1]; polymer DAA TMQ, 20 min): 6309.4 | S/N ([1]; polymer DAA TMQ, time 0): 1.0 | SIGNAL ([1]; polymer DAA TMQ, time 0 (background, before enzyme)): 90.5 | S/N ([1]; polymer DME(OH)B, 5 min): 46.1 | SIGNAL ([1]; polymer DME(OH)B, 5 min): 3931.9 | S/N ([1]; polymer DME(OH)B, 20 min): 66.2 | SIGNAL ([1]; polymer DME(OH)B, 20 min): 5300.5 | S/N ([1]; polymer DME(OH)B, time 0): 1.0 | SIGNAL ([1]; polymer DME(OH)B, time 0 (background, before enzyme)): 85.2 | S/N ([1]; polymer DMEB, 5 min): 77.1 | SIGNAL ([1]; polymer DMEB, 5 min): 6160.6 | S/N ([1]; polymer DMEB, 20 min): 98.1 | SIGNAL ([1]; polymer DMEB, 20 min): 7835.2 | S/N ([1]; polymer DMEB, time 0): 1.0 | SIGNAL ([1]; polymer DMEB, time 0 (background, before enzyme)): 79.9 | S/N ([1]; polymer DMQ TEQ, 5 min): 189.7 | SIGNAL ([1]; polymer DMQ TEQ, 5 min): 17235.6 | S/N ([1]; polymer DMQ TEQ, 20 min): 227.9 | SIGNAL ([1]; polymer DMQ TEQ, 20 min): 20702.2 | S/N ([1]; polymer DMQ TEQ, time 0): 1.0 | SIGNAL ([1]; polymer DMQ TEQ, time 0 (background, before enzyme)): 90.8 | S/N ([1]; polymer MPB, 5 min): 140.7 | SIGNAL ([1]; polymer MPB, 5 min): 13165.3 | S/N ([1]; polymer MPB, 20 min): 172.7 | SIGNAL ([1]; polymer MPB, 20 min): 16159.2 | S/N ([1]; polymer MPB, time 0): 1.0 | SIGNAL ([1]; polymer MPB, time 0 (background, before enzyme)): 93.6 | S/N ([1]; polymer NONE, 5 min): 32.9 | SIGNAL ([1]; polymer NONE, 5 min, enzyme 2.83×10^-13 M): 2863.6 | S/N ([1]; polymer NONE, 20 min): 36.3 | SIGNAL ([1]; polymer NONE, 20 min, enzyme 2.83×10^-13 M): 3160.8 | S/N ([1]; polymer NONE, time 0): 1.0 | SIGNAL ([1]; polymer NONE, time 0 (background, before enzyme)): 87.0 | S/N ([1]; polymer S/TMQ(1:2), 5 min): 112.5 | SIGNAL ([1]; polymer S/TMQ(1:2), 5 min): 10193.8 | S/N ([1]; polymer S/TMQ(1:2), 20 min): 158.6 | SIGNAL ([1]; polymer S/TMQ(1:2), 20 min): 11365.1 | S/N ([1]; polymer S/TMQ(1:2), time 0): 1.0 | SIGNAL ([1]; polymer S/TMQ(1:2), time 0 (background, before enzyme)): 90.6 | S/N ([1]; polymer S/TMQ(1:4), 5 min): 114.5 | SIGNAL ([1]; polymer S/TMQ(1:4), 5 min): 9294.6 | S/N ([1]; polymer S/TMQ(1:4), 20 min): 148.1 | SIGNAL ([1]; polymer S/TMQ(1:4), 20 min): 1201.7 | S/N ([1]; polymer S/TMQ(1:4), time 0): 1.0 | SIGNAL ([1]; polymer S/TMQ(1:4), time 0 (background, before enzyme)): 81.2 | SIGNAL ([1]; polymer SAPPHIRE (BDMQ), time 0 (background, before enzyme)): 86.1 | S/N ([1]; polymer SAPPHIRE, 5 min): 244.5 | SIGNAL ([1]; polymer SAPPHIRE, 5 min): 21051.3 | S/N ([1]; polymer SAPPHIRE, 20 min): 292.3 | SIGNAL ([1]; polymer SAPPHIRE, 20 min): 25330.3 | S/N ([1]; polymer SAPPHIRE, time 0): 1.0 | S/N ([1]; polymer TBQ, 5 min): 366.0 | SIGNAL ([1]; polymer TBQ, 5 min): 37244.5 | S/N ([1]; polymer TBQ, 20 min): 438.0 | SIGNAL ([1]; polymer TBQ, 20 min): 44569.8 | S/N ([1]; polymer TBQ, time 0): 1.0 | SIGNAL ([1]; polymer TBQ, time 0 (background, before enzyme)): 101.8 | S/N ([1]; polymer TEQ, 5 min): 45.24 | SIGNAL ([1]; polymer TEQ, 5 min): 15779.8 | S/N ([1]; polymer TEQ, 20 min): 54.7 | SIGNAL ([1]; polymer TEQ, 20 min): 1908.9 | S/N ([1]; polymer TEQ, time 0): 1.0 | SIGNAL ([1]; polymer TEQ, time 0 (background, before enzyme)): 348.8 | S/N ([1]; polymer TMQ, 5 min): 113.6 | SIGNAL ([1]; polymer TMQ, 5 min): 8853.4 | S/N ([1]; polymer TMQ, 20 min): 149.6 | SIGNAL ([1]; polymer TMQ, 20 min): 11658.3 | S/N ([1]; polymer TMQ, time 0): 1.0 | SIGNAL ([1]; polymer TMQ, time 0 (background, before enzyme)): 77.9 | Detection limit (in picograms DNA) 5. min. exp. [2, 3]: 0.625 picograms DNA | Detection limit (in picograms DNA) 1 min. exp. [2, 3]: 2.500 picograms DNA | Detection limit (in picograms DNA) 5. min. exp. ([2]; no BDMQ blocking step): 5.000 picograms DNA | Detection limit (in picograms DNA) 1 min. exp. ([2]; no BDMQ blocking step, listed as OH-Adamant-2'-ylidene (A isomer)): 10.000 picograms DNA
